Experimental findings from patent US5158948A (Abbott Laboratories, priority 1991, dated 1992) are described below.

Test [1] deals with T1, dopamine D-1 receptor (Rattus norvegicus, UniProt P18901). The experiment in a line: Rotation behavior: block of A-68930-induced rotation in rats with unilateral 6-hydroxydopamine lesion. The format is in vivo. On the set-up: Homogenized rat caudate was incubated; from tissue; host or cells: rat caudate homogenate. To be noted: subcutaneous, A-68930 1.0 μmol/kg s.c.
Test [2] deals with T2, dopamine D-2 receptor (Rattus norvegicus, UniProt P61169).
T2 construct: Homogenized rat caudate was the source of the D-2 receptors; from tissue; host or cells: rat caudate homogenate
Kind of test: D-2 receptor binding assay, competition with [^3 H]-spiperone in homogenized rat caudate. To be noted: rat caudate homogenate. The procedure:
Homogenized rat caudate was the source of the D-2 receptors. […] A. Frey, T. E. Cote, C. […] The molar affinity of the compound for the receptor binding site was calculated by the same method used for the D-1 receptor assay, assuming a competitive interaction between the compound and the radiolabeled ligand.

The target in test [3] is T1, dopamine D-1 receptor. The experiment in a line: D-1 receptor binding assay, competition with [^125 I]SCH-23982 in homogenized rat caudate.
Description: The compounds compete with the radiolabeled ligand for occupancy of the receptors and the molar potency of each compound was quantified.
Test [4] addresses D-1 receptor. Kind of test: D-1 antagonist activity in adenylate cyclase assay (antagonism of dopamine-induced increase in cAMP). The format is biochemical. To be noted: 10 μM dopamine; goldfish retina or rat striatum homogenate. The procedure: The functional activity of a compound was determined by assaying, in vitro, its ability to either stimulate the enzyme adenylate cyclase to produce more cAMP (agonist activity) or to antagonize a dopamine-induced increase in cAMP levels. The protocol for the adenylate cyclase assays was described by K. J. Watling and J. E. Dowling in J Neurochemistry, 1981, 36: 599 and by J. W. Kebabian, et al. in Proc Natl Acad Sci, USA, 1972, 69: 2145. In order to determine agonist activity, cell-free tissue homogenates are incubated in an ionic buffer solution containing ATP and the compound being evaluated. The tissue was obtained from either goldfish retina or rat striatum.
The Ki values were calculated as described by Y. C.

[5] abbreviates: dose 10.0 μmol/kg, saline 1118 (Example 18), 1011 (Example 27).

Structures can show the parent of a compound that is named as a salt.

T1 sequence (P18901 whole entry): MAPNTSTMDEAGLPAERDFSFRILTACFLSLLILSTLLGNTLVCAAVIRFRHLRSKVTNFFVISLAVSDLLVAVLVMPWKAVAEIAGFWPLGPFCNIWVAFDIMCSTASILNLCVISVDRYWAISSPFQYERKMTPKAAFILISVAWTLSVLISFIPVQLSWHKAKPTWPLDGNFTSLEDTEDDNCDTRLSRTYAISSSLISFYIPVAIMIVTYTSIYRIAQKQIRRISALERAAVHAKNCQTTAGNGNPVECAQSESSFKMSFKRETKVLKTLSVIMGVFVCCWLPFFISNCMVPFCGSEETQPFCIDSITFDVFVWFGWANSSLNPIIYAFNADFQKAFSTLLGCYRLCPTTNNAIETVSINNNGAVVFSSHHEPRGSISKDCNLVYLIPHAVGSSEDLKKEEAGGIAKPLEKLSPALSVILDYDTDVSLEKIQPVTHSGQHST
T2 sequence (P61169 whole entry): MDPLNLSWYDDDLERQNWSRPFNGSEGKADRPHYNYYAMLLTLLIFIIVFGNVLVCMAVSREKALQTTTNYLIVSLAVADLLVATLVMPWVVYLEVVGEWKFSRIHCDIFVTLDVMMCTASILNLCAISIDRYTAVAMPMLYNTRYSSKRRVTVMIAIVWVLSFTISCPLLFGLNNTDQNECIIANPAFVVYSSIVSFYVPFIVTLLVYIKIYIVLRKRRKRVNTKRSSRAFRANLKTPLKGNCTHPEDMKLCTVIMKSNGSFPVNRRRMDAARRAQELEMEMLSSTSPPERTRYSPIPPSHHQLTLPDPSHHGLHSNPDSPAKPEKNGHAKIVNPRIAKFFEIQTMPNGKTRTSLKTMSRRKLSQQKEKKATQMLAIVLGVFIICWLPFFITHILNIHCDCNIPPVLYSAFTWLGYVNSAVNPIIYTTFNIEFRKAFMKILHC

`CN1CCc2cc(O)c(O)cc2C2(CCCc3ccccc32)C1` (centres unmarked) [Example 27, 7,8-Dihydroxy-3-methyl-1-(spiro-1'-1',2',3',4'-tetrahydronapthalene)-2,3,4,5-tetrahydro-1H-3-benzazepine hydrobromide]: the “Number of Rotations/2 h” value in test [1] (dose 3.0 μmol/kg, saline group 1011) amounted to 913 Rotations/2 h; in test [1] (setting [5]) it was 652 Rotations/2 h; in test [1] (dose 30.0 μmol/kg, saline group 1011) it was 119 Rotations/2 h. For the same compound, the Ki in test [2] was > 100000 nM; in test [3], 840 nM; in test [4], 400 nM. Moreover, half-maximal inhibition in test [4] (IC50) required 2290 nM.
Take `CN1CCc2cc(Br)c(O)cc2C2(CCc3ccccc32)C1` (centres unmarked) [Example 18, 7-Bromo-8-hydroxy-3-methyl-1-(spiro-1'-indan)-2,3,4,5-tetrahydro-1H-3-benzazepine hydrochloride]: the “Number of Rotations/2 h” value in test [1] (dose 3.2 μmol/kg, saline group 1118) is 491 Rotations/2 h; in test [1] (setting [5]), 412 Rotations/2 h; in test [1] (dose 32.0 μmol/kg, saline group 1118) it was 154 Rotations/2 h. Further, the results for the Ki in test [2], in test [3] and in test [4] were 5900 nM, 10 nM and 10 nM, respectively. Also, the concentration for half-maximal inhibition (IC50) in test [4] stood at 50 nM.

By Ki is commonly meant a dissociation constant, usually derived from enzyme kinetics or from competition with a known ligand. A higher Ki goes with lower affinity. The IC50 is the concentration that inhibits the measured activity by half.
